Tested on: isolated mouse vas deferens
Type: cell-based
Procedure: The compounds were examined for their ability to inhibit neurally evoked contractions of the isolated mouse vas deferens preparation (method of Hughes et al, Brain Research, 88 (1975) 296, using pulses at 0.1 Hz).
The heights of the five contractions that immediately preceded the addition of the first "dose" of test compound were measured and their mean calculated. The resultant mean contraction associated with a particular bath concentration of test compound was calculated from the heights of the 6th, 7th, 8th, 9th and 10th contractions after the addition of the appropriate "dose" of test compound, i.e. the five contractions that immediately preceded the subsequent "dose" or washout.
Generally at least two cumulative dose response curves were constructed and a mean D50 calculated.

COC(=O)[C@H](CCSC)NC(=O)[C@H](Cc1ccccc1)NC(=O)CNC(=O)[C@@H](C)NC(=O)[C@@H](N)Cc1ccc(O)cc1 [5(b), H.Tyr. --D-Ala.Gly.Phe.Met.OMe]
Relative Potency (Morphine) (RP=antilog[logD50(MORPHINE) - logD50(TEST COMPOUND)], morphine = 1.0): 94

CN1CC[C@]23c4c5ccc(O)c4O[C@H]2[C@@H](O)C=C[C@H]3[C@H]1C5 [Morphine]
Reversal of the inhibition of the contractions by naloxone: Reversal of the inhibition of the contractions was effected
